Like-named read-outs stand apart in the source and are kept apart here.
Biological target: T1, GPR119 (Homo sapiens, UniProt Q8TDV5)
T1 sequence (Q8TDV5 1-335): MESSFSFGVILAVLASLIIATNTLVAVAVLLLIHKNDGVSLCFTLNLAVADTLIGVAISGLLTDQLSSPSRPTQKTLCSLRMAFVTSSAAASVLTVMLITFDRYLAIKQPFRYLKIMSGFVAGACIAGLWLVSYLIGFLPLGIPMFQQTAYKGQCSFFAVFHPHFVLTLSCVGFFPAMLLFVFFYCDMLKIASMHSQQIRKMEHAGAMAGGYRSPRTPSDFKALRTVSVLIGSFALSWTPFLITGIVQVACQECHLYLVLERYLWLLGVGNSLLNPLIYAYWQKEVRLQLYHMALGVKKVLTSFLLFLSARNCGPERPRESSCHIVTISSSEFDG
Assay: LANCE Ultra cAMP assay: stimulation of GPR119-mediated cAMP production in CHO cells stably expressing human GPR119 receptor
Assay type: cell-based
Settings: for Emax: CHO, read-out: % cAMP Max. relative to forscolin
Description: The potency of GPR119 receptor agonists was assessed by measuring the stimulation of GPR119-mediated cAMP production with LANCE Ultra cAMP assay (Perkin Elmer, TRF0264) in CHO cells stably expressing human GPR119 receptor (Chantest, cat. #A633). CHO-GPR119 cells were cultured in DMEM/F12 medium supplemented with 10% FBS and 1% NEAA at 37° C., 5% CO2, aliquoted and frozen in liquid nitrogen.
(§1) For assay, cells were thawed in a water bath at 37° C., washed in Hank's Balanced Salt Solution (HBSS) and resuspended in Stimulation Buffer 1 (SB1) for 30 min: 5 mM HEPES, pH 7.2-7.4, 0.1% BSA in HBSS. […] The ULight-anti-cAMP antibody (Perkin Elmer, TRF0264) was added to the cell suspension making Mix [Cell suspension/4× ULight-anti-cAMP antibodies]. […] The assay plate was centrifuged 200 g, 5 sec.
Serial dilution (100×) of tested compounds were prepared in DMSO in the range of from 30 nM to 1 mM with half-log step in 384-well plates (Greiner, 781280) using Biomek 2000. 10 test concentrations in two repeats were prepared for each CRC. […] The assay plate was incubated 30 minutes at room temperature on a shaker, 250 rpm to allow GPR119 receptor stimulation. The cAMP level was determined according to the standard kit supplier protocol (PerkinElmer, cat. #TRF0264).
(§2) The stock solution of the Eu-cAMP tracer (Perkin Elmer, TRF0264) was diluted 1:100 in cAMP Detection Buffer (Perkin Elmer, TRF0264), making 2× working concentration and added to the assay plate, 10 μL per well. Assay plate was centrifuged 180 g, 1 sec. Then the assay plate was incubated for 60′ at room temperature on shaker, 250 rpm to allow cAMP detection. The TR-FRET signal was measured at Ex-340 nm/Em-615 and Ex-340 nm/Em-665 nm on the reader Tecan M1000. 0% of cAMP stimulation corresponds to the cells with DMSO only, 100% of cAMP stimulation corresponds to the cells with 10 uM Forskolin. The EC50 value defined as the concentration of the drug that gives half-maximal response, were calculated using GraphPad Prizm 5.0 software with forskolin was used as references at each test. Entries 1-17 in Table A-2 show the biological activity of certain representative compounds using the protocol as described above.
as §1, with “cell suspension,” for “cell suspension”
as §2, with “1-14” for “1-17”, “B-2” for “A-2”

[1] = Table A-2 entries 1-17, protocol as described, 100% = 10 uM Forskolin
[2] = Table A-2 entries 1-17, protocol as described (800 000 cells/mL, 5 uL/well), CHO-GPR119 cells
[3] = Table A-2 entries 18-25, modified protocol, 500 cells/well
[4] = Table B-2 entries 1-14, protocol as described (800 000 cells/mL, 5 uL/well), CHO-GPR119 cells

| SMILES | Emax [1] | EC50 [2] | Emax [3] | EC50 [3] | EC50 [4] |
| --- | --- | --- | --- | --- | --- |
| CC(C)(C)N1CCC(COc2ccc(-c3ccc4c(c3)OCS4(=O)=O)cc2F)CC1 [A-13] | 75% | 833 nM | – | – | – |
| CN(C)C(=O)N1CCC(COc2ccc(-c3ccc4c(c3)OCS4(=O)=O)cc2F)CC1 [A-14] | 77% | 86.4 nM | – | – | – |
| CC(C)(C)C(=O)N1CCC(COc2ccc(-c3ccc4c(c3)OCS4(=O)=O)cc2F)CC1 [A-15] | 80% | 61.7 nM | – | – | – |
| NCC(=O)N1CCC(COc2ccc(-c3ccc4c(c3)OCS4(=O)=O)cc2F)CC1 [A-17] | 67% | ≥ 10000 nM | – | – | – |
| CC(C)[C@H](N)C(=O)N1CCC(COc2ccc(-c3ccc4c(c3)OCS4(=O)=O)cc2F)CC1 [A-19] | 65% | 4080 nM | – | – | – |
| NC(=O)N1CCC(COc2ccc(-c3ccc4c(c3)OCS4(=O)=O)cc2F)CC1 [A-20] | 70% | ≥ 10000 nM | – | – | – |
| CC(C)C(=O)N1CCC(COc2ccc(-c3ccc4c(c3)OCS4(=O)=O)cc2F)CC1 [A-21] | 77% | 37 nM | – | – | – |
| CCc1cnc(N2CCC(COc3ccc(-c4ccc5c(c4)OCS5(=O)=O)cc3F)CC2)nc1 [A-24] | 77% | 2.5 nM | – | – | – |
| O=S1(=O)COc2cc(-c3cnc(OCC4CCN(c5ncc(Cl)cn5)CC4)nc3)ccc21 [A-29, 6-(2-((1-(5-Chloropyrimidin-2-yl)piperidin-4-yl)methoxy)pyrimidin-5-yl)-2H-benzo[d][1,3]oxathiole 3,3-dioxide] | 80% | 33.1 nM | – | – | – |
| O=S1(=O)COc2ccc(-c3ccc(OCC4CCN(c5ncc(Cl)cn5)CC4)c(F)c3)cc21 [A-40] | 65% | 369 nM | – | – | – |
| O=S1(=O)COc2cc(-c3ccc(OCC4CCN(c5ncncn5)CC4)c(F)c3)ccc21 [A-42, 6-(4-((1-(1,3,5-Triazin-2-yl)piperidin-4-yl)methoxy)-3-fluorophenyl)-2H-benzo[d][1,3]oxathiole 3,3-dioxide] | 75% | 102 nM | – | – | – |
| O=S1(=O)COc2cc(-c3ccc(OCC4CN(c5ncc(Cl)cn5)C4)c(F)c3)ccc21 [A-48, 6-(4-((1-(5-Chloropyrimidin-2-yl)azetidin-3-yl)methoxy)-3-fluorophenyl)-2H-benzo[d][1,3]oxathiole 3,3-dioxide] | 80% | 67 nM | – | – | – |
| CC(C)c1noc(N2CC(COc3ccc(-c4ccc5c(c4)OCS5(=O)=O)cc3F)C2)n1 [A-52, 6-(3-Fluoro-4-((1-(3-isopropyl-1,2,4-oxadiazol-5-yl)azetidin-3-yl)methoxy)phenyl)-2H-benzo[d][1,3]oxathiole 3,3-dioxide] | 81% | 24 nM | – | – | – |
| O=S1(=O)COc2cc(-c3ccc(OCc4cnc(C5CCN(c6ncc(Cl)cn6)CC5)s4)c(F)c3)ccc21 [Example A-58, 6-(4-((2-(1-(5-Chloropyrimidin-2-yl)piperidin-4-yl)thiazol-5-yl)methoxy)-3-fluorophenyl)-2H-benzo[d][1,3]oxathiole-3,3-dioxide] | 73% | 96 nM | – | – | – |
| CC(C)c1noc(N2CCC(COc3ccc(-c4ccc5c(c4)OCS5(=O)=O)cc3F)CC2)n1 [Example A-59, 6-(3-Fluoro-4-((1-(3-isopropyl-1,2,4-oxadiazol-5-yl)piperidin-4-yl)methoxy)phenyl)-2H-benzo[d][1,3]oxathiole 3,3-dioxide] | 77% | 5.4 nM | – | – | – |
| O=S1(=O)COc2cc(-c3ccc(N4CCN(c5ncc(Cl)cn5)CC4)c(F)c3)ccc21 [Example A-65, 6-(4-(5-Chloropyrimidin-2-yl)piperazin-1-yl)-3-fluorophenyl-2H-benzo[d][1,3]oxathiole 3,3-dioxide] | 84% | 112 nM | – | – | – |
| CC(C)c1cnc(N2CCC(COc3ccc(-c4ccc5c(c4)OCS5(=O)=O)cc3F)CC2)nc1 [Example A-66, 6-(3-Fluoro-4-(1-(5-isopropylpyrimidin-2-yl)piperidin-4-yl)methoxy)phenyl-2H-benzo[d][1,3]oxathiole 3,3-dioxide] | – | – | 80% | 19.1 nM | – |
| COc1cnc(N2CCC(COc3ccc(-c4ccc5c(c4)OCS5(=O)=O)cc3F)CC2)nc1 [Example A-67, 6-(3-Fluoro-4-(1-(5-methoxypyrimidin-2-yl)piperidin-4-yl)methoxy)phenyl-2H-benzo[d][1,3]oxathiole 3,3-dioxide] | – | – | 72% | 21.4 nM | – |
| CCc1cnc(N2CCC[C@@H]2COc2ccc(-c3ccc4c(c3)OCS4(=O)=O)cc2F)nc1 [Example A-71] | – | – | 51% | 1690 nM | – |
| CCc1cnc(N2CCC(COc3cnc(-c4ccc5c(c4)OCS5(=O)=O)nc3)CC2)nc1 [Example A-76, 6-(5-((1-(5-Ethylpyrimidin-2-yl)piperidin-4-yl)methoxy)pyrimidin-2-yl)-2H-benzo[d][1,3]oxathiole 3,3-dioxide] | – | – | 87% | 8.2 nM | – |
| CCc1cnc(N2CCC[C@H]2COc2ccc(-c3ccc4c(c3)OCS4(=O)=O)cc2F)nc1 [Example A-80] | – | – | 25% | 1310 nM | – |
| CCc1cnc(N2CC[C@H](COc3ccc(-c4ccc5c(c4)OCS5(=O)=O)cc3F)C2)nc1 [Example A-86, (S)-6-(4-((1-(5-Ethylpyrimidin-2-yl)pyrrolidin-3-yl)methoxy)-3-fluorophenyl)-2H-benzo[d][1,3]oxathiole 3,3-dioxide] | – | – | 96% | 166 nM | – |
| O=S1(=O)COc2cc(-c3ccc(OC[C@H]4CCN(c5ncc(Cl)cn5)C4)c(F)c3)ccc21 [Example A-89, (S)-6-(4-((1-(5-Chloropyrimidin-2-yl)pyrrolidin-3-yl)methoxy)-3-fluorophenyl)-2H-benzo[d][1,3]oxathiole 3,3-dioxide] | – | – | 93% | 46 nM | – |
| CCc1ccnc(N2CC[C@H](COc3ccc(-c4ccc5c(c4)OCS5(=O)=O)cc3F)C2)n1 [Example A-92, (S)-6-(4-((1-(4-Ethylpyrimidin-2-yl)pyrrolidin-3-yl)methoxy)-3-fluorophenyl)-2H-benzo[d][1,3]oxathiole 3,3-dioxide] | – | – | 90% | 58 nM | – |
| Fc1cc(-c2ccc3c(c2)OCS3)ccc1OCC1CCN(c2ncc(Cl)cn2)CC1 [Example B-12] | – | – | – | – | 280 nM |
| [O-][S+]1COc2cc(-c3ccc(OCC4CCN(c5ncc(Cl)cn5)CC4)c(F)c3)ccc21 (stereo not shown) [Example B-16, 6-(4-((1-(5-Chloropyrimidin-2-yl)piperidin-4-yl)methoxy)-3-fluorophenyl)-2H-benzo[d][1,3]oxathiole 3-oxide] | – | – | – | – | 2.3 nM |
| CC(C)(C)OC(=O)N1CCC(COc2ccc(-c3ccc4c(c3)OC[S+]4[O-])cc2F)CC1 (stereo not shown) [Example B-17, tert-Butyl 4-((2-fluoro-4-(3-oxido-1,3-benzoxathiol-6-yl)phenoxy)methyl) piperidine-1-carboxylate] | – | – | – | – | > 100 nM |
| [O-][S+]1COc2cc(-c3ccc(OCC4CCNCC4)c(F)c3)ccc21 (stereo not shown) [Example B-18] | – | – | – | – | > 500 nM |
